Measurements taken from PubChem BioAssay AID2060338 (Molecular Pharmacology Branch, DTP, NCI, 2025).

Test system: 556581-035-R-J1-PDC spheroids with HUVEC/MSC, viability
Assay: Anticancer human tumor 556581-035-R-J1-PDC patient-derived ovarian carcinoma cell line growth inhibition [IpAb]
Settings: for IC50: curve of first compound; for viability, T/C: stronger effect = lower value
Outline: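 Multi-cell spheroids of 60% tumour cells, 25% HUVEC and 15% MSC in ultra-low-attachment U-bottom wells, treated with agents combined with ipatasertib or abemaciclib. Half-log ranges top out near clinical Cmax, or 10 microM when Cmax is unknown.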

[1] = second compound 0.01 µM, first compound 0.0316 µM
[2] = second compound 0.01 µM, first compound 0.1 µM
[3] = second compound 0.01 µM, first compound 0.316 µM
[4] = second compound 0.01 µM, first compound 1 µM
[5] = second compound 0.0316 µM, first compound 0.0316 µM
[6] = second compound 0.0316 µM, first compound 0.1 µM
[7] = second compound 0.0316 µM, first compound 0.316 µM
[8] = second compound 0.0316 µM, first compound 1 µM
[9] = second compound 0.1 µM, first compound 0.0316 µM
[10] = second compound 0.1 µM, first compound 0.1 µM
[11] = second compound 0.1 µM, first compound 0.316 µM
[12] = second compound 0.1 µM, first compound 1 µM
[13] = second compound 0.316 µM, first compound 0.0316 µM
[14] = second compound 0.316 µM, first compound 0.1 µM
[15] = second compound 0.316 µM, first compound 0.316 µM
[16] = second compound 0.316 µM, first compound 1 µM
[17] = second compound 1 µM, first compound 0.0316 µM
[18] = second compound 1 µM, first compound 0.1 µM
[19] = second compound 1 µM, first compound 0.316 µM
[20] = second compound 1 µM, first compound 1 µM
[21] = second compound 0.01 µM, first compound 3.16 µM
[22] = second compound 0.01 µM, first compound 10 µM
[23] = second compound 0.0316 µM, first compound 3.16 µM
[24] = second compound 0.0316 µM, first compound 10 µM
[25] = second compound 0.1 µM, first compound 3.16 µM
[26] = second compound 0.1 µM, first compound 10 µM
[27] = second compound 0.316 µM, first compound 3.16 µM
[28] = second compound 0.316 µM, first compound 10 µM
[29] = second compound 1 µM, first compound 3.16 µM
[30] = second compound 1 µM, first compound 10 µM
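Note: spheroids exposed to compounds for 7 days before readout.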

## COc1c(OCCCN2CCOCC2)ccc2c3n(c(=NC(=O)c4cnc(N)nc4)nc12)CCN3 + CCN1CCN(Cc2ccc(Nc3ncc(F)c(-c4cc(F)c5nc(C)n(C(C)C)c5c4)n3)nc2)CC1
Second compound 0.01 µM
  IC50: 0.0147 µM
Second compound 0.0316 µM
  IC50: 0.0188 µM
Second compound 0.1 µM
  IC50: 0.0219 µM
Second compound 0.316 µM
  IC50: 0.0212 µM
Second compound 1 µM
  IC50: 0.0124 µM
Second compound 0.01 µM, first compound 0.00316 µM
  viability, T/C: 76.3%
Second compound 0.01 µM, first compound 0.01 µM
  viability, T/C: 49.2%
[1]
  viability, T/C: 39.6%
[2]
  viability, T/C: 29.9%
[3]
  viability, T/C: 12.4%
[4]
  viability, T/C: 3.84%
Second compound 0.0316 µM, first compound 0.00316 µM
  viability, T/C: 77.2%
Second compound 0.0316 µM, first compound 0.01 µM
  viability, T/C: 53.8%
[5]
  viability, T/C: 43.9%
[6]
  viability, T/C: 32.4%
[7]
  viability, T/C: 11.2%
[8]
  viability, T/C: 2.33%
Second compound 0.1 µM, first compound 0.00316 µM
  viability, T/C: 84%
Second compound 0.1 µM, first compound 0.01 µM
  viability, T/C: 60.9%
[9]
  viability, T/C: 40.3%
[10]
  viability, T/C: 34.4%
[11]
  viability, T/C: 11.3%
[12]
  viability, T/C: 2%
Second compound 0.316 µM, first compound 0.00316 µM
  viability, T/C: 84.9%
Second compound 0.316 µM, first compound 0.01 µM
  viability, T/C: 63.2%
[13]
  viability, T/C: 41.2%
[14]
  viability, T/C: 29.9%
[15]
  viability, T/C: 7.71%
[16]
  viability, T/C: 3.06%
Second compound 1 µM, first compound 0.00316 µM
  viability, T/C: 59.9%
Second compound 1 µM, first compound 0.01 µM
  viability, T/C: 51.7%
[17]
  viability, T/C: 40.4%
[18]
  viability, T/C: 29.8%
[19]
  viability, T/C: 12%
[20]
  viability, T/C: 2.02%

## Cc1nc(NC(=O)N2CCCC2C(N)=O)sc1-c1ccnc(C(C)(C)C(F)(F)F)c1 (stereo not given) + CCN1CCN(Cc2ccc(Nc3ncc(F)c(-c4cc(F)c5nc(C)n(C(C)C)c5c4)n3)nc2)CC1
Second compound 0.01 µM
  IC50: 0.388 µM
Second compound 0.0316 µM
  IC50: 0.274 µM
Second compound 0.1 µM
  IC50: 0.401 µM
Second compound 0.316 µM
  IC50: < 0.0316 µM
Second compound 1 µM
  IC50: < 0.0316 µM
[1]
  viability, T/C: 87.3%
[2]
  viability, T/C: 65.6%
[3]
  viability, T/C: 47.3%
[4]
  viability, T/C: 39.6%
[21]
  viability, T/C: 33.2%
[22]
  viability, T/C: 10.3%
[5]
  viability, T/C: 70.4%
[6]
  viability, T/C: 58.8%
[7]
  viability, T/C: 42.9%
[8]
  viability, T/C: 42%
[23]
  viability, T/C: 27.5%
[24]
  viability, T/C: 9.58%
[9]
  viability, T/C: 67.8%
[10]
  viability, T/C: 62%
[11]
  viability, T/C: 52.7%
[12]
  viability, T/C: 39.5%
[25]
  viability, T/C: 25.2%
[26]
  viability, T/C: 7.2%
[13]
  viability, T/C: 46.7%
[14]
  viability, T/C: 47.9%
[15]
  viability, T/C: 40.8%
[16]
  viability, T/C: 36.7%
[27]
  viability, T/C: 31.2%
[28]
  viability, T/C: 11.3%
[17]
  viability, T/C: 48.9%
[18]
  viability, T/C: 37.9%
[19]
  viability, T/C: 39%
[20]
  viability, T/C: 30.2%
[29]
  viability, T/C: 20.2%
[30]
  viability, T/C: 9%

## Cn1nccc1Nc1nccc(-c2ccn(C(CO)c3ccc(Cl)c(F)c3)c(=O)c2)n1 (stereo not given) + CCN1CCN(Cc2ccc(Nc3ncc(F)c(-c4cc(F)c5nc(C)n(C(C)C)c5c4)n3)nc2)CC1
Second compound 0.01 µM
  IC50: 9.08 µM
Second compound 0.0316 µM
  IC50: 6.09 µM
Second compound 0.1 µM
  IC50: 5.33 µM
Second compound 0.316 µM
  IC50: 7.52 µM
Second compound 1 µM
  IC50: 5.34 µM
[1]
  viability, T/C: 110%
[2]
  viability, T/C: 145%
[3]
  viability, T/C: 127%
[4]
  viability, T/C: 109%
[21]
  viability, T/C: 95.4%
[22]
  viability, T/C: 45.8%
[5]
  viability, T/C: 119%
[6]
  viability, T/C: 140%
[7]
  viability, T/C: 128%
[8]
  viability, T/C: 98.5%
[23]
  viability, T/C: 72%
[24]
  viability, T/C: 34.8%
[9]
  viability, T/C: 107%
[10]
  viability, T/C: 123%
[11]
  viability, T/C: 134%
[12]
  viability, T/C: 119%
[25]
  viability, T/C: 63.4%
[26]
  viability, T/C: 33.8%
[13]
  viability, T/C: 92.2%
[14]
  viability, T/C: 103%
[15]
  viability, T/C: 144%
[16]
  viability, T/C: 101%
[27]
  viability, T/C: 87.3%
[28]
  viability, T/C: 37.9%
[17]
  viability, T/C: 78%
[18]
  viability, T/C: 85.5%
[19]
  viability, T/C: 128%
[20]
  viability, T/C: 72.3%
[29]
  viability, T/C: 71.5%
[30]
  viability, T/C: 27.2%
